From patent US7109193B2, “Tricyclic diazepines tocolytic oxytocin receptor antagonists” (Wyeth, priority 2001, dated 2006)

What follows are compounds tested against T1, human oxytocin receptor (Homo sapiens, UniProt P30559) (assay: Oxytocin binding in Chinese Hamster Ovary cell membranes expressing human oxytocin receptors). Conditions: 100 nM, CHO cell membranes, [3H]oxytocin, values without parentheses.
T1 construct: host or cells: CHO cells (pcDNA3.1 vector)
T1 sequence (P30559 1-389): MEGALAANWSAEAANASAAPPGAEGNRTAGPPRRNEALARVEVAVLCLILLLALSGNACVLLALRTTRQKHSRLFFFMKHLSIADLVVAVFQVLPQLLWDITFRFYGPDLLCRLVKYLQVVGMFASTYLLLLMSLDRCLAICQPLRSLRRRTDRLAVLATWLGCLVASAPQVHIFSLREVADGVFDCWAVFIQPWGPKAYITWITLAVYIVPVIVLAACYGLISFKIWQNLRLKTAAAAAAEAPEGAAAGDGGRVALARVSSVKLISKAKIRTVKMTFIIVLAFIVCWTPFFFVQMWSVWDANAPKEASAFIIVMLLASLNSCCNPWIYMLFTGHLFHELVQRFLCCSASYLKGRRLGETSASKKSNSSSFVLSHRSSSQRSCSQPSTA
Protocol: Oxytocin Binding in Chinese Hamster Ovary Cell Membranes Expressing Human Oxytocin Receptors
The trypsin is removed by aspiration and the cells dislodged by tapping. Cell Culture medium (e.g. 30 mL for 1:30 split) is immediately added and mixed well to inactivate trypsin. 1 mL of detached cells is added to new culture flasks containing fresh Cell Culture medium (e.g. into 25 mL per T-150 flask), and mixed gently. The cells are incubated at 37° C. in 5% CO2. The medium is changed at 3 to 4 days interval (or as appropriate). […] All steps are done under sterile conditions. B. Membrane Preparation: The cells are washed twice gently with Hank's Balanced Salt solution (e.g., use 10 mL per T-150 flask). […] The contents are transferred to centrifuge tubes (50 mL size) kept in ice bath. All subsequent steps are done at 4° C. The tubes are centrifuged at 300×g for 15 min (1380 rpm on SORVAL, Model RT6000D, using rotor for 50 mL tubes). The supernatant is discarded and the cells suspended in homogenizing buffer (10 mM Tris-HCl containing 0.25 M sucrose and 1 mM EDTA, pH 7.4) ensuring that the volume of the buffer is about ten times the volume of the cell pellet. The cells are pooled into a centrifuge tube (50 mL) and homogenized with a Polytron at setting 6 for 10 sec. The homogenate is transferred into a Potter-Elvjehm homogenizer and homogenized with 3 strokes. The homogenate is centrifuged at 1500×g for 10 min at 4° C. (3100 rpm using SORVAL, model RT6000D, using rotor for 50 mL tubes). The pellet is discarded. The supernatant is centrifuged at 100,000×g for 60 min. at 4° C. (Beckman L8-80M ultracentrifuge; spin at 37,500 rpm with rotor type 70 Ti for 50 mL tubes; 38,000 rpm with type 80Ti for 15 mL tubes; or 35,800 rpm with rotor type 45Ti). The supernantant is discarded and the pellet suspended in 3 to 4 mL of Tris buffer (50 mM TRIS-HCl, pH 7.4). The protein content is estimated by the Bradford or Lowry method. The volume of the membrane suspension is adjusted with the membrane buffer (50 mM Tris-HCl containing 0.1% BSA and 0.1 mM PMSF) to give 3.0 mg/mL (or as appropriate) of protein. The membranes are aliquoted and stored at −70° C. C. Radioligand Binding Assay: In wells of a 96-well format microtiter plate, is added 90, 110 or 130 μL (to make up a final volume of 200 μL) of assay buffer containing 50 mM of Tris-HCl (pH 7.4), […], 1 mg % aprotinin, 1 mg % leupeptin, 2 mg % 1,10-phenanthroline, 10 mg % trypsin inhibitor, and 0.1 mM PMSF. The inhibitors are added on the day of the experiment. The components are mixed at room temperature, and then kept in ice bath following adjustment of the pH to 7.4. […] For oxytocin and other peptide ligands, 20 μL of 50% DMSO is added and the assay buffer volume is adjusted accordingly. To each well is added 50 μL of frozen membrane suspension thawed immediately prior to use and diluted in assay buffer to the required concentration (equivalent to 25 to 50 μg of protein/well as needed). 20 μL of 8 nM [^3H]oxytocin in the assay buffer, prepared just before use is added and incubated at room temperature for 60 min. shaking the plate on a mechanical shaker for the first 15 min. The incubation is stopped by rapid filtration of the plate contents followed by washing with ice-cold buffer (50 mM Tris-HCl, pH 7.4) using a cell harvester (Tomtek and Printed filtermat-B filter paper). The filter paper is thoroughly dried (7–12 min. in a microwave oven) and impregnated with MeltiLex B/H melt-on scintillation wax sheets and the radioactivity counted in a betaplate scintillation counter.
Binding data is either reported as percent inhibition at a certain concentration or if an IC50 was calculated, as a nanomolar concentration.

Row | SMILES | OT % inhibition @ 100% nM [%]
1 | O=C(c1ccc2n1Cc1ccccc1N(C(=O)c1ccc(-c3cccc4ccccc34)cc1Cl)C2)N1CCC(N2CCCCC2)CC1 [Example 121] | 0
2 | Cc1cccc(N2CCN(C(=O)c3ccc4n3Cc3ccccc3N(C(=O)c3ccc(-c5ccccc5C(F)(F)F)c(C)c3)C4)CC2C)c1 (centres unmarked) [Example 5, [3-Methyl-4-(3-methyl-phenyl)-piperazin-1-yl]-[10-(2-methyl-2′-trifluoromethyl-[1,1′-biphenyl]-4-yl)carbonyl]-10,11-dihydro-5H-pyrrolo[2,1-c][1,4]benzodiazepin-3-yl-methanone] | 24
3 | COc1cc(C(=O)N2Cc3ccc(C(=O)N4CCC[C@H]4CN4CCCC4)n3Cc3ccccc32)ccc1-c1ccccc1C [Example 266, {10-[(2-Methoxy-2′-methyl[1,1′-biphenyl]-4-yl)carbonyl]-10,11-dihydro-5H-pyrrolo[2,1-c][1,4]benzodiazepin-3-yl}[(2S)-2-(1-pyrrolidinylmethyl)pyrrolidinyl]methanone] | 97
4 | COc1cccc(-c2cc(OC)c(C(=O)N3Cc4ccc(C(=O)N5CCN(CCN6CCOCC6)CC5)n4Cc4ccccc43)cc2Cl)c1 [Example 212, {10-[(6-Chloro-3,3′-dimethoxy[1,1′-biphenyl]-4-yl)carbonyl]-10,11-dihydro-5H-pyrrolo[2,1-c][1,4]benzodiazepin-3-yl}{4-[2-(4-morpholinyl)ethyl]-1-piperazinyi}methanone] | 95
5 | COc1cc(C(=O)N2Cc3ccc(C(=O)N4CC[C@@H](N(C)C)C4)n3Cc3ccccc32)ccc1-n1c(C)ccc1C [Example 322, [(3R)-3-(Dimethylamino)pyrrolidinyl]{10-[4-(2,5-dimethyl-1H-pyrrol-1-yl)-3-methoxybenzoyl]-10,11-dihydro-5H-pyrrolo[2,1-c][1,4]benzodiazepin-3-yl}methanone] | 66
6 | COc1cc(C(=O)N2Cc3ccc(C(=O)N4CCC[C@H]4CN4CCCC4)n3Cc3ccccc32)ccc1-c1cccc2ccccc12 [Example 262, {10-[3-Methoxy-4-(1-naphthyl)benzoyl]-10,11-dihydro-5H-pyrrolo[2,1-c][1,4]benzodiazepin-3-yl}[(2S)-2-(1-pyrrolidinylmethyl)pyrrolidinyl]methanone] | 76
7 | COc1ccccc1-c1ccc(C(=O)N2Cc3ccc(C(=O)N4CCC(N5CCCC5)CC4)n3Cc3ccccc32)cc1OC [Example 145, {10-[(2,2′-Dimethoxy[1,1′-biphenyl]4-yl)carbonyl]-10,11-dihydro-5H-pyrrolo[2,1-c][1,4]benzodiazepin-3-yl}[4-(1-pyrrolidinyl)-l-piperidinyl]methanone] | 53
8 | Cc1ccccc1-c1ccc(C(=O)N2Cc3ccc(C(=O)N4CC[C@@H](N(C)C)C4)n3Cc3ccccc32)cc1 [Example 280, [(3R)-3-(Dimethylamino)pyrrolidinyl]{10-[(2′-methyl[1,1′-biphenyl]-4-yl)carbonyl]-10,11-dihydro-5H-pyrrolo[2,1-c][1,4]benzodiazepin-3-yl}methanone] | 95
9 | COc1cc(C(=O)N2Cc3ccc(C(=O)N4CC[C@@H](N(C)C)C4)n3Cc3ccccc32)ccc1-c1cccc2ccccc12 [Example 276, [(3R)-3-(Dimethylamino)pyrrolidinyl]{10-[3-methoxy-4-(1-naphthyl)benzoyl]-10,11-dihydro-5H-pyrrolo[2,1-c][1,4]benzodiazepin-3-yl}methanone] | 74
10 | COc1cccc(-c2cc(OC)c(C(=O)N3Cc4ccc(C(=O)N5CC[C@@H](N(C)C)C5)n4Cc4ccccc43)cc2Cl)c1 [Example 275, {10-[(6-Chloro-3,3′-dimethoxy[1,1′-biphenyl]-4-yl)carbonyl]-10,11-dihydro-5H-pyrrolo[2,1-c][1,4]benzodiazepin-3-yl}[(3R)-3-(dimethylamino)pyrrolidinyl]methanone] | 89

Same assay, conditions: 100 nM, CHO cell membranes, [3H]oxytocin, values without parentheses, read-out: OT % inhibition @ 100% nM

Row | SMILES | inhibition at 0.1 µM [%]
11 | COc1cc(C(=O)N2Cc3ccc(C(=O)NCCN4CCCCC4)n3Cc3ccccc32)ccc1-c1ccccc1C [Example 154, 10-[(2-Methoxy-2′-methyl[1,1′-biphenyl]4-yl)carbonyl]-N-[2-(1-piperidinyl)ethyl]-10,11-dihydro-5H-pyrrolo[2,1-c][1,4]benzodiazepine-3-carboxamide] | 54
12 | COc1cccc(-c2ccc(C(=O)N3Cc4ccc(C(=O)NCCN5CCCCC5)n4Cc4ccccc43)cc2C)c1 [Example 151, 10-[(3′-Methoxy-2-methyl[1,1′-biphenyl]-4-yl)carbonyl]-N-[2-(1-piperidinyl)ethyl]-10,11-dihydro-5H-pyrrolo[2,1-c][1,4]benzodiazepine-3-carboxamide] | 47
13 | COc1ccccc1-c1ccc(C(=O)N2Cc3ccc(C(=O)N4CCC(N5CCCCC5)CC4)n3Cc3ccccc32)cc1C [Example 112, {10-[(2-Methyl-2′-methoxy[1,1′-biphenyl]-4-yl)carbonyl]-10,11-dihydro-5H-pyrrolo[2,1-c][1,4]benzodiazepin-3-yl}[4-(1-piperidinyl)-1-piperidinyl]methanone] | 89
14 | COc1ccccc1-c1ccc(C(=O)N2Cc3ccc(C(=O)NCCCn4ccnc4)n3Cc3ccccc32)cc1OC [Example 132, 10-[(2,2′-Dimethoxy[1,1′-biphenyl]-4-yl)carbonyl]-N-[3-(1H-imidazol-1-yl)propyl]-10,11-dihydro-5H-pyrrolo[2,1-c][1,4]benzodiazepine-3-carboxamide] | 31
15 | COc1cccc(-c2cc(OC)c(C(=O)N3Cc4ccc(C(=O)NCCCn5ccnc5)n4Cc4ccccc43)cc2Cl)c1 [Example 130, 10-[(6-Chloro-3,3′-dimethoxy[1,1′-biphenyl]-4-yl)carbonyl]-N-[3-(1H-imidazol-1-yl)propyl]-10,11-dihydro-5H-pyrrolo[2,1-c][1,4]benzodiazepine-3-carboxamide] | 46
16 | COc1ccccc1-c1ccc(C(=O)N2Cc3ccc(C(=O)NCCCn4ccnc4)n3Cc3ccccc32)cc1C [Example 123, N-[3-(1H-Imidazol-1-yl)propyl]-10-[(2′-methoxy-2-methyl[1,1′-biphenyl]-4-yl)carbonyl]-10,11-dihydro-5H-pyrrolo[2,1-c][1,4]benzodiazepine-3-carboxamide] | 47
17 | O=C(NCCCn1ccnc1)c1ccc2n1Cc1ccccc1N(C(=O)c1ccc(-c3cccc4ccccc34)cc1Cl)C2 [Example 134, 10-[2-Chloro-4-(1-naphthyl)benzoyl]-N-[3-(1H-imidazol-1-yl)propyl]-10,11-dihydro-5H-pyrrolo[2,1-c][1,4]benzodiazepine-3-carboxamide] | 15
